From US8324202B2, “5-phenyl-1H-benzo [E] [1,4] diazepine compounds substituted with an hydroxamic acid group as histone deacetylase inhibitors” (Universita Degli Studi di Firenze, priority 2007, dated 2012)
Several values for one entry are separate records, joined by “and”; a condition that tells them apart may be missing. Identical values can stand only once. Like-named read-outs stand apart in the source and are kept apart here.

Columns and labels:
Format in all cases: cell-based, human
[1] = test system: NB4 cells; assay: Cytostatic and apoptotic activity, Annexin-V-FLUOS/propidium iodide flow cytometry, 48 hours; conditions: 48 hours, graphic extrapolation of Annexin-V results, viable cells over control, read-out: IC50 (drug concentration reducing cell density or viability by 50%)
Procedure: (§1) The new described compounds were tested for their ability to inhibit the histone deacetylase activity by western blot for the acetylated isoforms of histone H3 and H4 and also to induce growth arrest in cancer cells by activating apoptosis and/or cell differentiation. Initially, biological activities of newly synthesized HDACi were assessed by using the human acute promyelocytic leukemia cell line NB4, as the experimental model. Cells were maintained in RPMI (Bio-Whittaker Europe, Verviers, Belgio) supplemented with 10% of fetal calf serum (FCS, Boehringer Mannheim, Germania) and 2 mM glutamine (Merck, Darmstadt, Germania) at 37° C. in a humidified atmosphere of 5% CO2. Cells were counted in a Burker chamber and cells viability was assessed by the trypan blu exclusion test.
Cells, were initially harvested at 4×10^5/mL (3 mL/well) cell density 24 well plate and incubated for 48 hours with increasing drug concentration. All compounds were solubilized in DMSO so that the final concentration of vehicle in culture was lower than 0.1%. At the end of treatment cell viability and apoptosis were evaluated by cytofluorimetric analysis using Anexin-V-Fluos staining (Annexin-V-FLUOS Staining Kit, Roche Molecular Biochemicals, Mannheim, Germany).
Necrotic cells, which are also Annexin-V positive, were identified by using Propidium iodide fluorochrome, that is capable of penetrating cell membranes of dying or dead cells and binding DNA.
Briefly, aliquots of cell suspensions (approximately 10^5 cells) washed in buffer PBS, were resuspended in 5 μl of binding buffer containing annexin V-fluorescein isothiocyanate (FITC) and propidium iodide; incubation was carried out for 15 minutes at room temperature, and cells were then analyzed by flow cytometry (FACScan Becton-Dickinson, San Jose, Calif.).
The IC50 values (i.e. the drug concentration necessary to reduce cell density or viability by 50% as compared to untreated control cultures) obtained by graphic extrapolation of the Anexin-V results and expressed as percentage of viable cells over control were reported In Table 2.
Data represent the percentage of viable cells as the function of drug concentration.

[2] = test system: acetylated H3 histone; assay: Histone deacetylase inhibition: western blot for acetylated histone H3 in cells incubated 6 hours with drug; conditions: for Acetyl-H3 densitometric value: 6 hours, untreated = 1; for HDAC inhibitory / acetylating activity, in words (histone not specified) / H3 histone acetylating activity, in words: summary in description
Procedure: as §1
(§2) Cells, obtained as described above, were harvested in sterile plates (Falcon, Becton Dickinson, Franklin Lakes, N.J.) at density of 6×10^5/mL, and incubated for 6 hours with increasing drug concentration of single compounds. Then, the cells were lysated with RIPA buffer (50 mM Tris-HCl pH 7.4, 150 mM NaCl, 1% Nonidet P-40, 1 mM EDTA plus protease inhibitor cocktail (Protease Inhibitor Cocktail Set III, n° cat. 539134, Calbiochem, Merck, Darmstadt, Germany) and sonicated (Labsonic 1510) twice for 15s pulses at 1-2 Watts in ice. Protein concentration of cell extracts was determined according to the bicinchoninic acid colorimetric method (BCA, Pierce, Rockford, USA) by using serum bovine albumin as the standard (BSA, Sigma, Steinheim, Germania). Equal amounts of protein (20-40 μg/20-30 μL/well) were separated on NuPAGE Bis-Tris 12% gel (Novex, Invitrogen, Carlsbad, Calif.) 10% and transferred to nitrocellulose membranes (Pro-Bind, pore diameter=0.45 μm; Amersham Pharmacia). Then membranes, incubated in phosphate buffer saline (PBS) with 6% defatted dry milk as blocking solution to saturate unspecific binding sites, were probed overnight at 4° C. with primary antibodies (1;1000 dilution in PBS) raised against acetylated H4 a H3 histone isoforms (Upstate Technologies, Lake Placid, N.Y., USA). […] The experiment was performed with the compound (II) S form, where R1 and R2 can be independently a methyl group or hydrogen.

[3] = test system: acetylated H4 histone; assay: Histone deacetylase inhibition: western blot for acetylated histone H4 in cells incubated 6 hours with drug; conditions: for Acetyl-H4 densitometric value: 6 hours, untreated = 0; for H4 histone acetylating activity, in words: summary in description
Procedure: as §1, §2

[4] = test system: NB4 cells; assay: Granulocytic differentiation, NBT reduction assay, alone or with ATRA; conditions: for % of NBT+ cells: three days; for effect on granulocytic differentiation / NBT positive cells, in words: alone or in combination with 20 nM ATRA
Procedure: The analysis of functional myeloid differentiation induced by compounds of the invention was accomplished by Nitro-Blu tetrazolium (NBT) reduction assay as described below. Cell suspension (approximately 10^5/mL) were incubated in the presence of 0.25 mg/mL NBT and 500 ng of PMA (Phorbol-12-Myristate 13-acetate) (Sigma) at 37° C. for 30 minutes. Granulocyte or monocyte differentiated cell were capable of reducing NBT to dark formazan precipitate (blu positive cells). NBT positive cells were counted on Burker chamber and expressed as percentage of total cell population.
(§3) • Compounds (II) in racemic form and enantiomers S or R. • Compounds (III) in racemic form and enantiomers S or R. • Compounds (II) with R1 and R2=hydrogen were tested for their capability to synergize with ATRA and for their ability to induce granulocyte differentiation in the human promyelocytic cell line NB4. ATRA at the final concentration of 1 μM is usually employed to induce granulocyte differentiation in NB4 cells.
(§4) NB4 cells were incubated for three days in presence of the compounds listed above, alone or in combination with ATRA. Granulocyte differentiation of leukemic cells was determined by (a) Nitro-Blu tetrazolium (NBT) reduction to dark formazan precipitate (blu positive cells) counting NBT positive cells on Burker chamber and (b) cytofluorimetric analysis of CD11b membrane expression (granulocyte marker, see example 32).

[5] = test system: NB4 cells; assay: Granulocytic differentiation, cytofluorimetric analysis of CD11b membrane expression, alone or with ATRA; conditions: for % of CD11b+ cells: three days
Procedure: Identification of markers of myeloid maturation was determined by flow cytometry by labelling cells with PE-conjugated antibody and FITC-conjugated antibody to CD11b (granulocyte marker) and CD14 (monocyte marker) respectively (Becton-Dickinson). Cell suspension aliquots (1×10^5 cells) were washed with cell wash buffer (Becton-Dickinson) and incubated with antibodies for 30 minutes in ice. After the incubation cells, resuspended in 0.3 mL of buffer containing Actinomycin D (Becton-Dickinson) to evaluate cell viability, were submitted to the cytofluorimetric analysis (FACScan, Becton-Dickinson). Cells incubated with appropriately labeled isotype controls were used to gate nonspecific fluorescence signal.
as §3, §4

SMILES | Acetyl-H3 densitometric value ([2]; 2 μM) | HDAC inhibitory / acetylating activity, in words (histone not specified) [2] | Acetyl-H4 densitometric value ([3]; 2 μM) | Acetyl-H3 densitometric value ([2]; 0.5 μM) | Acetyl-H3 densitometric value ([2]; 1 μM) | Acetyl-H3 densitometric value ([2]; 2.5 μM) | H3 histone acetylating activity, in words [2] | Acetyl-H4 densitometric value ([3]; 0.5 μM) | Acetyl-H4 densitometric value ([3]; 1 μM) | Acetyl-H4 densitometric value ([3]; 2.5 μM) | H4 histone acetylating activity, in words [3] | effect on granulocytic differentiation / NBT positive cells, in words [4] | also measured
CC1N=C(c2ccccc2)c2cc(NC(=O)CCCCCCC(=O)NO)ccc2N(C)C1=O (racemic) [Compound (III) racemic with R1 or R2 = Me, N1-hydroxy-N8-(1,3-dimethyl-2-oxo-5-phenyl-2,3-dihydro-1H-1,4-benzo[e][1,4]diazepin-7-yl)octanediamide] | 4.04 arbitrary units | good inhibitory activity | 12.96 arbitrary units |  |  |  |  |  |  |  |  |  | IC50 [1]: 4000 nM; Acetyl-H3 densitometric value ([2]; 4 μM): 4.92 arbitrary units; Acetyl-H3 densitometric value ([2]; 10 μM): 5.42 arbitrary units; Acetyl-H4 densitometric value ([3]; 4 μM): 23.7 arbitrary units; Acetyl-H4 densitometric value ([3]; 10 μM): 28.15 arbitrary units
CN1C(=O)C(NC(=O)CCCCCCC(=O)NO)N=C(c2ccccc2)c2ccccc21 (racemic) [Compound (IV) racemic, N1-hydroxy-N8-(1-methyl-2-oxo-5-phenyl-2,3-dihydro-1H-benzo[e][1,4]diazepin-3-yl)octanediamide] |  |  |  | 2.67 arbitrary units | 3.17 arbitrary units | 3.38 arbitrary units | reasonably good activity toward H3 histone | 1 arbitrary units | 5.78 arbitrary units | 10.89 arbitrary units | good acetylating activity of H4 histone |  | IC50 ([1]; Homo sapiens, NB-4): 570 nM
CC1=C(/C=C/C(C)=C/C=C/C(C)=C/C(=O)O)C(C)(C)CCC1 [ATRA, all-trans-retinoc acid, reference compound] |  |  |  |  |  |  |  |  |  |  |  |  | % of NBT+ cells ([4]; 20 nM ATRA alone): 12% and 15%; % of NBT+ cells ([4]; 1 μM ATRA alone): 78% and 80%; % of CD11b+ cells ([5]; 20 nM ATRA alone): 13% and 10%; % of CD11b+ cells ([5]; 1 μM ATRA alone): 80% and 71.3% and 72%
C[C@H]1N=C(c2ccccc2)c2cc(C#CCCCC(=O)NO)ccc2N(C)C1=O [Compound (II) R form with R1 or R2 = Me, (R)-6-(1,3-dimethyl-2-oxo-5-phenyl-2,3-dihydro-1H-benzo[e][1,4]diazepin-7-yl)-N-hydroxyhex-5-ynamide] |  |  |  | 2.5 arbitrary units | 2.54 arbitrary units | 3.69 arbitrary units | good activity toward H3 histone | 0 arbitrary units | 0 arbitrary units | 0 arbitrary units | does not show hyperacetylating activity on H4 histones | no appreciable effect on granulocytic differentiation | % of NBT+ cells ([4]; 1.5 μM compound + 20 nM ATRA): 13.1%; % of NBT+ cells ([4]; 1.5 μM compound alone): ≦1%; % of CD11b+ cells ([5]; 1.5 μM compound + 20 nM ATRA): 19.8%; % of CD11b+ cells ([5]; 1.5 μM compound alone): 14.2%
C[C@@H]1N=C(c2ccccc2)c2cc(NC(=O)CCCCCCC(=O)NO)ccc2N(C)C1=O [Compound (III) S form with R1 or R2 = Me, (S)—N-1-(1,3-dimethyl-2-oxo-5-phenyl-2,3-dihydro-1H-benzo[e][1,4]diazepin-7-yl)-N8-hydroxyoctanediamide] | 2.65 arbitrary units | good inhibitory activity | 4.81 arbitrary units |  | 2.73 arbitrary units |  |  |  | 3 arbitrary units |  |  | strong synergistic increase of NBT positive cells | % of NBT+ cells ([4]; 3 μM compound + 20 nM ATRA): 40%; % of NBT+ cells ([4]; 3 μM compound alone): 3%; Acetyl-H3 densitometric value ([2]; 5 μM): 3.61 arbitrary units; Acetyl-H4 densitometric value ([3]; 5 μM): 12.59 arbitrary units; % of CD11b+ cells ([5]; 3 μM compound + 20 nM ATRA): 7.4%; % of CD11b+ cells ([5]; 3 μM compound alone): 26%; effect on CD11b positive cells, in words ([5]; alone or in combination with 20 nM ATRA): no increase in CD11b positive cells
